Source: ChEMBL document CHEMBL5053549, “Discovery of Potent and Novel Dual PARP/BRD4 Inhibitors for Efficient Treatment of Pancreatic Cancer” (J Med Chem, 2021)
pIC50: −log10 of the molar value. Calls of active or inactive are those of the source. The calls are words filed in the database; no cut-off is given here.

Columns and labels:
[1] = molecular target: Bromodomain-containing protein 4 (Homo sapiens, UniProt O60885); experiment: Inhibition of recombinant BRD4 (unknown origin) at 1 uM incubated for 120 mins by TR-FRET assay relative to control
[2] = test system: Mus musculus; experiment: Inhibition of homologous recombinant repair in human SW1990 cells xenografted in BALB/c mouse assessed as increase in HEX1M1 expression at 45 mg/kg, ip after 4 days by immunohistochemical analysis; format: functional, organism-based; settings: time 4.0 day
[3] = molecular target: Bromodomain-containing protein 2 (Homo sapiens, UniProt P25440); experiment: Inhibition of recombinant BRD2 BD2 (unknown origin) incubated for 120 mins by TR-FRET assay
[4] = molecular target: T1, Bromodomain-containing protein 3 (Homo sapiens, UniProt Q15059); experiment: Inhibition of recombinant BRD3 BD1 (unknown origin) incubated for 120 mins by TR-FRET assay
[5] = molecular target: T1, Bromodomain-containing protein 3; experiment: Inhibition of recombinant BRD3 BD2 (unknown origin) incubated for 120 mins by TR-FRET assay
[6] = test system: Mus musculus; experiment: Inhibition of homologous recombinant repair in human SW1990 cells xenografted in BALB/c mouse assessed as reduction in FOXM1 expression at 45 mg/kg, ip after 4 days by immunohistochemical analysis; format: functional, organism-based; settings: time 4.0 day
[7] = molecular target: Bromodomain testis-specific protein (Homo sapiens, UniProt Q58F21); experiment: Inhibition of recombinant BRDT BD2 (unknown origin) incubated for 120 mins by TR-FRET assay
[8] = test system: SW1990; experiment: Antitumor activity against human SW1990 cells xenografted in BALB/c mouse assessed as inhibition of tumor growth at 45 mg/kg, ip administered for 28 consecutive days and measured every 3 days by vernier caliper method; format: functional, organism-based; settings: time 28.0 day
[9] = test system: Mus musculus; experiment: Toxicity in BALB/c mouse xenografted with human SW1990 cells assessed as effect on body weight at 45 mg/kg, ip administered for 28 consecutive days; format: organism-based; settings: in vivo, 672 h, time 28 day
[10] = test system: Mus musculus; experiment: Toxicity in BALB/c mouse xenografted with human SW1990 cells assessed as heart damage at 45 mg/kg, ip administered for 28 consecutive days by H and E staining based […] microscopic analysis; format: organism-based; settings: in vivo, 672 h, time 28 day
[11] = test system: Mus musculus; experiment: In vivo inhibition of BRD4 expression in human […] cells xenografted in BALB/c mouse at 45 mg/kg, ip administered for 28 consecutive days by immunohistochemical analysis; format: functional, organism-based; settings: time 28.0 day
[12] = test system: Mus musculus; experiment: In vivo inhibition of PARP1 expression in human […] cells xenografted in BALB/c mouse at 45 mg/kg, ip administered for 28 consecutive days by Q-PCR analysis; format: functional, organism-based; settings: time 28.0 day
[13] = test system: SW1990; experiment: Induction of apoptosis in human SW1990 cells assessed as necrotic cells at 2 uM after 4 days by Annexin V-FITC and propidium iodide staining based flow cytometry (reference value: 1.89%); format: functional; settings: time 4 day
[14] = test system: SW1990; experiment: Induction of cell cycle arrest in human SW1990 cells assessed as accumulation of cells at G0/G1 phase at 2 uM incubated for 4 days by propidium iodide staining based flow cytometry (reference value: 64.79%); format: functional; settings: time 4 day
[15] = test system: SW1990; experiment: Induction of cell cycle arrest in human SW1990 cells assessed as accumulation of cells at S phase at 2 uM incubated for 4 days by propidium iodide staining based flow cytometry (reference value: 29.32%); format: functional; settings: time 4 day
[16] = test system: Mus musculus; experiment: Effect on cell cycle progression in human SW1990 cells xenografted in BALB/c mouse assessed as reduction in CCND1 expression at 45 mg/kg, ip after 4 days by Q-PCR analysis; format: functional, organism-based; settings: time 4.0 day
[17] = test system: SW1990; experiment: Effect on cell cycle progression in human SW1990 cells assessed as reduction in CDK6 expression at 1 to 2 uM after 4 days by Western blot analysis; format: functional, cell-based; settings: dose 1-2 µM, time 4.0 day
[18] = test system: SW1990; experiment: Effect on cell cycle progression in human SW1990 cells assessed as reduction in CCND1 expression at 1 to 2 uM after 4 days by Western blot analysis; format: functional, cell-based; settings: dose 1-2 µM, time 4.0 day
[19] = test system: SW1990; experiment: Effect on cell cycle progression in human SW1990 cells assessed as reduction in CCND1 expression at 1 to 2 uM after 4 days by Q-PCR analysis; format: functional, cell-based; settings: dose 1-2 µM, time 4.0 day
[20] = test system: SW1990; experiment: Inhibition of homologous recombinant repair in human SW1990 cells assessed as reduction in Rad51 expression at 1 to 2 uM after 4 days by Western blot analysis; format: functional, cell-based; settings: dose 1-2 µM, time 4.0 day
[21] = test system: SW1990; experiment: Induction of autophagy in human SW1990 cells assessed as reduction in Bcl-2 expression at 1 to 2 uM incubated for 4 days by immunofluorescence assay; format: functional, cell-based; settings: dose 1-2 µM, time 4.0 day
[22] = test system: SW1990; experiment: Induction of autophagy in human SW1990 cells xenografted in BALB/c mouse assessed as increase in LC3B expression at 45 mg/kg, ip after 4 days by Q-PCR analysis; format: functional, organism-based; settings: time 4.0 day
[23] = test system: SW1990; experiment: Induction of autophagy in human SW1990 cells xenografted in BALB/c mouse assessed as increase in beclin1 expression at 45 mg/kg, ip after 4 days by Q-PCR analysis; format: functional, organism-based; settings: time 4.0 day
[24] = test system: SW1990; experiment: Induction of autophagy in human SW1990 cells assessed as increase in LC3B expression at 4 uM incubated for 4 days by immunofluorescence assay; format: functional, cell-based; settings: time 4.0 day
[25] = test system: Mus musculus; experiment: Toxicity in BALB/c mouse xenografted with human SW1990 cells assessed as lung damage at 15 mg/kg, ip administered for 28 consecutive days by H and E staining based […] microscopic analysis; format: organism-based; settings: in vivo, 672 h, time 28 day
[26] = test system: Mus musculus; experiment: Toxicity in BALB/c mouse xenografted with human SW1990 cells assessed as spleen damage at 15 mg/kg, ip administered for 28 consecutive days in presence of 45 mg/kg Olaparib; format: organism-based; settings: in vivo, 672 h, time 28 day
[27] = test system: Mus musculus; experiment: In vivo inhibition of PARP1 expression in human […] cells xenografted in BALB/c mouse assessed as reversal of Olaparib-induced PARP1 accumulation at 15 mg/kg, ip administered for 28 consecutive days in presence of 45 mg/kg Olaparib by Western blot analysis; format: functional, organism-based; settings: time 28.0 day
[28] = test system: SW1990; experiment: Induction of cell cycle arrest in human SW1990 cells assessed as accumulation of cells at S phase at 1 uM incubated for 4 days in presence of 3 uM Olaparib by propidium iodide staining based flow cytometry (reference value: 29.32%); format: functional; settings: time 4 day
[29] = test system: SW1990; experiment: Effect on cell cycle progression in human SW1990 cells assessed as reduction in Olaparib-induced CDK6 expression at 1 uM after 4 days in presence of Olaparib by Q-PCR analysis; format: functional, cell-based; settings: time 4.0 day
[30] = test system: SW1990; experiment: Effect on cell cycle progression in human SW1990 cells assessed as reduction in Olaparib-induced PLK1 expression at 1 uM after 4 days in presence of Olaparib by Q-PCR analysis; format: functional, cell-based; settings: time 4.0 day
[31] = test system: SW1990; experiment: Inhibition of homologous recombinant repair in human SW1990 cells assessed as reduction in FOXM1 expression at 4 uM after 4 days by Q-PCR analysis; format: functional, cell-based; settings: time 4.0 day
[32] = test system: SW1990; experiment: Inhibition of homologous recombinant repair in human SW1990 cells assessed as reduction in BRCA1 expression at 4 uM after 4 days by Western blot analysis; format: functional, cell-based; settings: time 4.0 day
[33] = test system: SW1990; experiment: Inhibition of homologous recombinant repair in human SW1990 cells assessed as reduction in Rad51 expression at 4 uM after 4 days by Western blot analysis; format: functional, cell-based; settings: time 4.0 day
[34] = test system: SW1990; experiment: Inhibition of homologous recombinant repair in human SW1990 cells assessed as increase in […] expression at 4 uM after 4 days by Q-PCR analysis; format: functional, cell-based; settings: time 4.0 day

T1 sequence (Q15059 whole entry): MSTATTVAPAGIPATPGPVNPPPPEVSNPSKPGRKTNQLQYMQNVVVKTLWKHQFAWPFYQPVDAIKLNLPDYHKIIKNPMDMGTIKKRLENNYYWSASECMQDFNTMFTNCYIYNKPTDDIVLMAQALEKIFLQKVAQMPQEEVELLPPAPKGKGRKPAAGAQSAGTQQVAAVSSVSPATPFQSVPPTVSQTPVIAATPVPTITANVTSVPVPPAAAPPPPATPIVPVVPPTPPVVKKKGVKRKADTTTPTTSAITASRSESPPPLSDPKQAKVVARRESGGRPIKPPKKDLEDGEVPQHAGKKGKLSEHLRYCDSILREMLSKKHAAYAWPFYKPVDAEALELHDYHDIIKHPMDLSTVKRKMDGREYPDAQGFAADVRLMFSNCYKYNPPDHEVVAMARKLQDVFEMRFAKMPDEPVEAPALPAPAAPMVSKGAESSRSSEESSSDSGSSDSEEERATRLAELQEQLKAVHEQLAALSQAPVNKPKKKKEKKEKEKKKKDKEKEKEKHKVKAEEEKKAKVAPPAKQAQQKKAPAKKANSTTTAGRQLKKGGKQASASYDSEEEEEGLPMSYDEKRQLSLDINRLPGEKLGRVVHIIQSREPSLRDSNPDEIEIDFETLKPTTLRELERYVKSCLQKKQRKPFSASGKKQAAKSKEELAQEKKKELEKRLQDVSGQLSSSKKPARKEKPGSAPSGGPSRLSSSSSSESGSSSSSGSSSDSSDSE
Bromodomain-containing protein 2, sequence (P25440 whole entry): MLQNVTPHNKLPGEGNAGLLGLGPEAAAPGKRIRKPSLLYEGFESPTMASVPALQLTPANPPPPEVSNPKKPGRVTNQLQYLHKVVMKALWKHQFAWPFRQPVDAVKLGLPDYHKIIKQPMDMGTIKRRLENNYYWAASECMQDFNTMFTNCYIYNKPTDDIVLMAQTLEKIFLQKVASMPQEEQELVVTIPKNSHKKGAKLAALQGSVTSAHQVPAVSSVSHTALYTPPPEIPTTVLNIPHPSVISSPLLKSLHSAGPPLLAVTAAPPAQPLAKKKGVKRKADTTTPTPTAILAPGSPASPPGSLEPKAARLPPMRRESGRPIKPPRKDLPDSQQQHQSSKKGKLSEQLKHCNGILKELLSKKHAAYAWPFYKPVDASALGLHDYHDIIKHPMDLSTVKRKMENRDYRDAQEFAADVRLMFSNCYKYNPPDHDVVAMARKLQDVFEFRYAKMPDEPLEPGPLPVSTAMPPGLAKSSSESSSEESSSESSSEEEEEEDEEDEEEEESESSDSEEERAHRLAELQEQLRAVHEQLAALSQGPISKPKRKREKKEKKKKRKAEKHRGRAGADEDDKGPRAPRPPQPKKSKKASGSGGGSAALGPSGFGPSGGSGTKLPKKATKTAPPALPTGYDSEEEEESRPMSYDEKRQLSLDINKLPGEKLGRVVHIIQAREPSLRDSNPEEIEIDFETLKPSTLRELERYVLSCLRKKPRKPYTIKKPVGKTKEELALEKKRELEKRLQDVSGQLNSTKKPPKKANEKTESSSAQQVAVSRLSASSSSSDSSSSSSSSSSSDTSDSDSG

What does the source list for `CC[C@@H]1C(=O)N(C)c2cnc(N(C)c3ccc(-c4nc5c(C(N)=O)cccc5[nH]4)cc3OC)nc2N1C1CCCC1`?
inhibition [1]: 76.2%; inhibition [2]: Active; pIC50 [3]: 6.77; pIC50 [4]: 6.78; pIC50 [5]: 6.91; inhibition [6]: Active; pIC50 [7]: 5.85; Activity [8]: Active; Activity [9]: Non-Toxic; Activity [10]: Non-Toxic; Activity [11]: Active; Activity [12]: Active; Activity [13]: 4.56%; Activity [14]: 77.56%; Activity [15]: 9.21%; Activity [16]: Active; Activity [17]: Active; Activity [18]: Active; Activity [19]: Active; inhibition [20]: Active; Activity [21]: Active; Activity [22]: Active; Activity [23]: Active

For `Cc1sc2c(c1C)C(c1ccc(Cl)cc1)=N[C@@H](CC(=O)OC(C)(C)C)c1nnc(C)n1-2`, which Activity [24] is on record?
Its Activity is “Active”.

And the Activity [25]?
The Activity was “Non-Toxic”.

And the Activity [26]?
The Activity was “Non-Toxic”.

And the Activity [27]?
The Activity was “Active”.

What about the Activity [28] of the same compound?
Its Activity is 19.33%.

And the Activity [29]?
Its Activity is “Active”.

What about the Activity [30] of the same compound?
Its Activity is “Active”.

And the inhibition [31]?
Its inhibition is “Active”.

What about the inhibition [32] of the same compound?
Its inhibition is “Active”.

And the inhibition [33]?
The inhibition was “Active”.

And the inhibition [34]?
The inhibition was “Active”.
